Values after ≈ are worked out from the molar mass of the structure shown. Values joined by “and” are separate entries in the source; they are usually repeats but may differ in a detail not shown here. Equal values may be shown once. Read-outs that look alike come from different tables or passages of the source.
How the values were obtained:
[1] = in vivo; cited from earlier work
[2] = for Women with detectable emtricitabine concentrations at pre-dose sampling: limit of detection 0.0118 mg/L
[3] = cited from earlier work
wild-type HIV-1 = conditions: mean in vitro, wild-type HIV-1 viral replication; ref not given; cited from earlier work
clinical [4] = conditions: female, human, 200 mg; for Vd/F / half-life: in vivo; for AUC: 200 mg once daily, steady state, AUC0-24, noncompartmental
HIV-1 = conditions: combination antiretroviral regimen
[5] = female, human, in vivo
clinical [6] = conditions: female, human, in vivo, 200 mg
[7] = postpartum (n = 22), geometric least-squares mean (90% CI)
[8] = third trimester (n = 26), geometric least-squares mean (90% CI)

Cc1ccnc2c1NC(=O)c1cccnc1N2C1CC1 [nevirapine]
Reduction of exposure during pregnancy [1]: 10–20%

Nc1nc(=O)n([C@@H]2CS[C@H](CO)O2)cc1F [emtricitabine]
Women with detectable emtricitabine concentrations at pre-dose sampling ([2]; antepartum): All 26 women
Subjects achieving target AUC ≥7.0 mg h/L ([2]; during pregnancy, 15 of 26 subjects, 80% CI 45–70%): 58%
C24 (24 hour post dose concentration) [2, 7]: 0.085 mg/L
Cmax [2, 7]: 1.4 (1.3–1.7) mg/L
C24 (24 hour post dose concentration) ([2]; postpartum (n = 22), geometric least-squares mean (90% CI), listed as Emtricitabine): 0.085 (0.07–0.1) mg/L
tmax ([2]; postpartum (n = 22), median (range)): 2.0 (min–max: 1–6) hours
Subjects achieving target AUC ≥7.0 mg h/L ([2]; postpartum, 21 of 22 subjects, 80% CI 89–100%): 95%
Women with detectable emtricitabine concentrations at pre-dose sampling ([2]; postpartum): 18 of 22
Magnitude of the AUC decrease during pregnancy ([2]; pregnancy compared with postpartum): less than 20%
C24 (24 hour post dose concentration) [2, 8]: 0.058 mg/L
AUC ([3]; in vivo, 200 mg): 10000 ng·h/mL
Cmax ([3]; in vivo): 1800 ± 700 ng/mL
Minimum adult concentration ([3]; in vivo): 0.077 mg/L
Protein binding ([3]; in vivo): low protein binding
CL/F ([3]; nonpregnant adults, 200 mg once daily): 18.1 L/h
IC50 (drug concentration that suppresses viral replication by half) (wild-type HIV-1): 0.004 µg/mL (≈ 0.0162 µM)
IC90 (wild-type HIV-1): 0.051 µg/mL (≈ 0.206 µM)
Subjects with grade 3 adverse events of elevated bilirubin (human, in vivo): three subjects
Tolerability (human, in vivo): well tolerated
Congenital anomalies in infants (lachrymal duct stenosis, grade 3 vesicoureteral reflux, deemed not related to the antiretroviral regimen): two infants
Vd/F (clinical [4]; [7]): 301 L
Vd/F (clinical [4]; [8]): 334 L
half-life (clinical [4]; t1/2, postpartum (n = 22), geometric least-squares mean (90% CI)): 10.1 h
half-life (clinical [4]; t1/2, third trimester (n = 26), geometric least-squares mean (90% CI)): 9.3 h
Cmax (clinical [4]; plasma, oral): 1400 ng/mL
tmax (clinical [4]; plasma, oral): 2 h
AUC (clinical [4]; plasma, oral, postpartum (n = 22), geometric least-squares mean (90% CI)): 9700 ng·h/mL
AUC (clinical [4]; plasma, oral, third trimester (n = 26), geometric least-squares mean (90% CI)): 8000 ng·h/mL
concentration at 24 h (clinical [4]; plasma, oral, C24 (24 hour post dose concentration), postpartum (n = 22), geometric least-squares mean (90% CI)): 85 ng/mL
concentration at 24 h (clinical [4]; plasma, oral, C24 (24 hour post dose concentration), third trimester (n = 26), geometric least-squares mean (90% CI)): 58 ng/mL
concentration at 24 h (clinical [4]; plasma, oral, Lowest C24, postpartum): 70 ng/mL
Women with viral load <400 HIV-1 RNA copies/mL (HIV-1; postpartum): 15 of 19 and 15
Women with viral load <400 HIV-1 RNA copies/mL (HIV-1; third trimester): 24 of 26
Maternal plasma concentration at delivery [5]: 0.15 mg/L
Kp (clinical [6]): 1.2
